Measured values published in patent US11787785B2 (NOVARTIS AG, priority 2021, dated 2023).

Biological target: T1, WIZ protein (HiBit-WIZ fusion protein) (Homo sapiens, UniProt O95785+Q96SW2)
T1 construct: expressed in transfected cells
Test: Quantification of WIZ protein levels in HiBit tag fusion protein assay (WIZ HiBit assay in 293T cells)
Assay type: cell-based
Set-up: remaining activity / Dmax: dose or concentration left out as unconfirmed
Conditions: for DC50: WIZ HiBit assay in 293T cells, 10-point, 5-fold dose response, highest concentration 25 μM, about 18 hours, read-out: WIZ AC50; for Dmax at 25 µM: 100 − Amax; for Dmax at 25 µM / remaining activity at 25 µM: 293T cells; for remaining activity at 25 µM: DMSO-normalized, curve-fitted percentage of WIZ-HiBit remaining at 25 uM
How it was run: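 Luminescence after LgBit complementation quantified remaining HiBit-WIZ in lysates of single-copy stable 293T lines. Cells dosed ~18 h at 37 °C with 10-point, 5-fold dilutions (highest 25 μM); DMSO set to 100%, fitted curve gave % remaining at 25 μM (Amax).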

[1] = HEK-293T, read-out: % degradation of WIZ (100 − Amax)

T1 sequence (O95785 whole entry, the tested form may be a part): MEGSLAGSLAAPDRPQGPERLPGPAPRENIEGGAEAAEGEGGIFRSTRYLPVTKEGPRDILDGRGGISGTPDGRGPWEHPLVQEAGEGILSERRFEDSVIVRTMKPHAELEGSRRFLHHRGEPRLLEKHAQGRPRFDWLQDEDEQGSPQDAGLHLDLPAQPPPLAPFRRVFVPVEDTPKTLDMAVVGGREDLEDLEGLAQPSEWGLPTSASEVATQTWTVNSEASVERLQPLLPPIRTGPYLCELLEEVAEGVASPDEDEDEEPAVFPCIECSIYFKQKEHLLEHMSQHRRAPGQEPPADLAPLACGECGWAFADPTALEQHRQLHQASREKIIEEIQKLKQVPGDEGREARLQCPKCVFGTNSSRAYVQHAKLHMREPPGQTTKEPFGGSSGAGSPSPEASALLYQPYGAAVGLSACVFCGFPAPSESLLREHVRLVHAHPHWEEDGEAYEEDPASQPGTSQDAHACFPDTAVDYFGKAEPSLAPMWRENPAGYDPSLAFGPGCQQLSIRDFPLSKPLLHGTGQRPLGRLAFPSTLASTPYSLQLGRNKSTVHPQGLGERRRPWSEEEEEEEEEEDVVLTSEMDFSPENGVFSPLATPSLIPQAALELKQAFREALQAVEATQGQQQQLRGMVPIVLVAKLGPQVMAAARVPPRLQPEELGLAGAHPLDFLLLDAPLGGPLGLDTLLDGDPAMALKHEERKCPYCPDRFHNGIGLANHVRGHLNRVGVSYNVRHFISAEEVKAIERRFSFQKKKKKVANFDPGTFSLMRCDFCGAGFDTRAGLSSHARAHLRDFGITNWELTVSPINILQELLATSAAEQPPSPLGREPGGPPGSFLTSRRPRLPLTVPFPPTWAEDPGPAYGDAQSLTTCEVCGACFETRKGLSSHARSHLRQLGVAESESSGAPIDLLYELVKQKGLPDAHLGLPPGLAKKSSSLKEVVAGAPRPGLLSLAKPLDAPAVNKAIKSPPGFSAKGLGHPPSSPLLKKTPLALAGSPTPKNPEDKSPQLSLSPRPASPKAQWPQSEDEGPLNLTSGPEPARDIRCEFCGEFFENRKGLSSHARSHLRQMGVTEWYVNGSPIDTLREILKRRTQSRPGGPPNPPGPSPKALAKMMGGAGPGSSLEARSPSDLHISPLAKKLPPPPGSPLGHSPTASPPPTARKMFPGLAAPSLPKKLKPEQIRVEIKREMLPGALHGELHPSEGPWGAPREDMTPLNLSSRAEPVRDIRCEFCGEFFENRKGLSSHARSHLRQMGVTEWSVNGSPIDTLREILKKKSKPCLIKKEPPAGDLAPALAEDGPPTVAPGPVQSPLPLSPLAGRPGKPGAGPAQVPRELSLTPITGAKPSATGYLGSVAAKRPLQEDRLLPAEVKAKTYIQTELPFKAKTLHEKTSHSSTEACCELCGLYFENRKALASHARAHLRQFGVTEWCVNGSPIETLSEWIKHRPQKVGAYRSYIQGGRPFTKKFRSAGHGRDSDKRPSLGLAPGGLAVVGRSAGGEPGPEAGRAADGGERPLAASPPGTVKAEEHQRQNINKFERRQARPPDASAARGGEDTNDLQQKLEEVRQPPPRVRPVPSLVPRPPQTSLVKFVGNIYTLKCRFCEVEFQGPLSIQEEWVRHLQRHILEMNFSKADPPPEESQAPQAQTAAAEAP
T1 sequence (Q96SW2 whole entry, the tested form may be a part): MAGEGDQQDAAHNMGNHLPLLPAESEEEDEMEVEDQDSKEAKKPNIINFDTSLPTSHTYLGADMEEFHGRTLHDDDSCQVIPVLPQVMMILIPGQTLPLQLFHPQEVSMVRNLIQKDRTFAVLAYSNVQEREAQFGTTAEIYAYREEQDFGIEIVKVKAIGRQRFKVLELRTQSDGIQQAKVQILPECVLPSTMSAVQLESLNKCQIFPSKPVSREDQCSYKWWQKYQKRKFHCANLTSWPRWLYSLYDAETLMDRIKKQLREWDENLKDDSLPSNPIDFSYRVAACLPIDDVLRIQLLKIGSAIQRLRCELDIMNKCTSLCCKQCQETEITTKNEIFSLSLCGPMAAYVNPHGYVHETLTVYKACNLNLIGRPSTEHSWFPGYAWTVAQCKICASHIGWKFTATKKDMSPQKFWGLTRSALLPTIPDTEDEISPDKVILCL
T1 sequence (Q16531 whole entry partner, the tested form may be a part): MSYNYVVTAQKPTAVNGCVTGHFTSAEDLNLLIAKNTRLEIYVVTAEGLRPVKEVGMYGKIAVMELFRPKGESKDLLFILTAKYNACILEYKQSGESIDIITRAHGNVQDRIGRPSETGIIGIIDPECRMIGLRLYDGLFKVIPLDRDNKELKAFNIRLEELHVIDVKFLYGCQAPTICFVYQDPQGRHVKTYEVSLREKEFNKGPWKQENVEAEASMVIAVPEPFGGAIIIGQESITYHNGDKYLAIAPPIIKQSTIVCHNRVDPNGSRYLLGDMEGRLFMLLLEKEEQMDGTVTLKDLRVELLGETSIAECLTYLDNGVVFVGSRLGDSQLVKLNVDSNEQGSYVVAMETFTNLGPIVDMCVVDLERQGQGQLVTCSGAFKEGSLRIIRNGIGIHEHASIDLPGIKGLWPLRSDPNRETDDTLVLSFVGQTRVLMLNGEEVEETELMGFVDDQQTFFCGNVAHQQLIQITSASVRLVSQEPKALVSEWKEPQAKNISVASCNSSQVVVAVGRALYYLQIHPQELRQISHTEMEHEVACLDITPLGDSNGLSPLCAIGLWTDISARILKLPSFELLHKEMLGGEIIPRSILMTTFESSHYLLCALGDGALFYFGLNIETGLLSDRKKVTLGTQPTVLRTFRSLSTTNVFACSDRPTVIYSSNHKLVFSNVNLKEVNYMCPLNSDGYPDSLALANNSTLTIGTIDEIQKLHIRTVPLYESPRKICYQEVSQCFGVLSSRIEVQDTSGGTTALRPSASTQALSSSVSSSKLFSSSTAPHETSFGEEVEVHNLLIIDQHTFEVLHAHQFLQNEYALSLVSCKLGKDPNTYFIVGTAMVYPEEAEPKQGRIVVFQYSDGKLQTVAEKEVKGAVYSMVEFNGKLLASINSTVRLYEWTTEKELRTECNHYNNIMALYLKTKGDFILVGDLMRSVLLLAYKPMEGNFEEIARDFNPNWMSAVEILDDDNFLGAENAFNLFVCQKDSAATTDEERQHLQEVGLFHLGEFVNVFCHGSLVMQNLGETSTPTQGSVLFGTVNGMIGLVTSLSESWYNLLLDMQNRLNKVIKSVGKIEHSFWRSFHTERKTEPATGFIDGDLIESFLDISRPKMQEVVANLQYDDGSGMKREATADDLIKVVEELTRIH

| SMILES | DC50 [nM] | Dmax at 25 µM [1] [%] | remaining activity at 25 µM (HEK-293T, read-out: WIZ Amax) [%] | Dmax [1] [%] | remaining activity (HEK-293T, read-out: WIZ Amax) [%] |
| --- | --- | --- | --- | --- | --- |
| COc1ccnc(N2CCC(Cc3ccn4ncc(N5CCC(=O)NC5=O)c4c3)CC2)n1 [Example 69, 1-(5-((1-(4-methoxypyrimidin-2-yl)piperidin-4-yl)methyl)pyrazolo[1,5-a]pyridin-3-yl)dihydropyrimidine-2,4(1H,3H)-dione] | 350 | – | – | 35 | 65 |
| O=C1CCN(c2cnn3ccc(CC4CCN(Cc5ccc(F)cc5F)CC4)cc23)C(=O)N1 [Example 50, 1-(5-((1-(2,4-difluorobenzyl)piperidin-4-yl)methyl)pyrazolo[1,5-a]pyridin-3-yl)dihydropyrimidine-2,4(1H,3H)-dione] | 113 | 66 | 34 | – | – |
| O=C1CCN(c2cnn3ccc(CC4CCN(Cc5cscn5)CC4)cc23)C(=O)N1 [Example 115] | 267 | 54 | 46 | – | – |
| O=C1CCN(c2cnn3ccc(CC4CCN(CC(CO)CO)CC4)cc23)C(=O)N1 [Example 121, 1-(5-((1-(3-hydroxy-2-(hydroxymethyl)propyl)piperidin-4-yl)methyl)pyrazolo[1,5-a]pyridin-3-yl)dihydropyrimidine-2,4(1H,3H)-dione] | > 25000 | 50 | 50 | – | – |
| CC(C)(C)OC(=O)N1CCC(Cc2ccn3ncc(N4CCC(=O)NC4=O)c3c2)CC1 [Example 97, tert-butyl 4-((3-(2,4-dioxotetrahydropyrimidin-1(2H)-yl)pyrazolo[1,5-a]pyridin-5-yl)methyl)piperidine-1-carboxylate] | 24800 | 44 | 56 | – | – |
| O=C1CCN(c2cnn3ccc(CN4CCN(CC5CC5)CC4)cc23)C(=O)N1 [Example 189, 1-(5-((4-(cyclopropylmethyl)piperazin-1-yl)methyl)pyrazolo[1,5-a]pyridin-3-yl)dihydropyrimidine-2,4(1H,3H)-dione] | 191 | 71 | 29 | – | – |
| O=C1CCN(c2cnn3ccc(CN4C[C@@H]5C[C@H]4CN5CC4CCCCC4)cc23)C(=O)N1 [Example 236, 1-(5-(((1S,4S)-5-(cyclohexylmethyl)-2,5-diazabicyclo[2.2.1]heptan-2-yl)methyl)pyrazolo[1,5-a]pyridin-3-yl)dihydropyrimidine-2,4(1H,3H)-dione] | 3200 | 5 | 95 | – | – |
| O=C1CCN(c2cnn3ccc(CN4C[C@H]5C[C@@H]4CN5Cc4cccnc4)cc23)C(=O)N1 [Example 235, 1-(5-(((1R,4R)-5-(pyridin-3-ylmethyl)-2,5-diazabicyclo[2.2.1]heptan-2-yl)methyl)pyrazolo[1,5-a]pyridin-3-yl)dihydropyrimidine-2,4(1H,3H)-dione] | 3280 | 35 | 65 | – | – |
| CC(C)CN1[C@@H]2CC[C@H]1CC(Cc1ccn3ncc(N4CCC(=O)NC4=O)c3c1)C2 (stereo partly drawn) [Example 67, 1-(5-(((1R,5S)-8-isobutyl-8-azabicyclo[3.2.1]octan-3-yl)methyl)pyrazolo[1,5-a]pyridin-3-yl)dihydropyrimidine-2,4(1H,3H)-dione] | 561 | 61 | 39 | – | – |
| O=C1CCN(c2cnn3ccc(CN4CCN(CC5CCCCC5)CC4=O)cc23)C(=O)N1 [Example 255, 1-(5-((4-(cyclohexylmethyl)-2-oxopiperazin-1-yl)methyl)pyrazolo[1,5-a]pyridin-3-yl)dihydropyrimidine-2,4(1H,3H)-dione] | > 25000 | 0 | 100 | – | – |
| C[C@H]1C[C@H](Cc2ccn3ncc(-n4cc(Cl)c(=O)[nH]c4=O)c3c2)CCN1CC1CCC(F)(F)CC1 [Example 352, 5-chloro-1-(5-(((2S,4R)-1-((4,4-difluorocyclohexyl)methyl)-2-methylpiperidin-4-yl)methyl)pyrazolo[1,5-a]pyridin-3-yl)pyrimidine-2,4(1H,3H)-dione] | 192 | 90 | 10 | – | – |
| O=C1CCN(c2cnn3ccc(CN4CCN(CC(F)(F)F)CC4)cc23)C(=O)N1 [Example 171] | 981 | 52 | 48 | – | – |
| COc1cn(-c2cnn3ccc(CN4CCN(CC(C)C)[C@@H](C)C4)cc23)c(=O)[nH]c1=O [Example 360, (S)-1-(5-((4-isobutyl-3-methylpiperazin-1-yl)methyl)pyrazolo[1,5-a]pyridin-3-yl)-5-methoxypyrimidine-2,4(1H,3H)-dione] | > 25000 | 24 | 76 | – | – |
| COC[C@H]1CN(Cc2ccn3ncc(N4CCC(=O)NC4=O)c3c2)CCN1CC(C)C [Example 245, (R)-1-(5-((4-isobutyl-3-(methoxymethyl)piperazin-1-yl)methyl)pyrazolo[1,5-a]pyridin-3-yl)dihydropyrimidine-2,4(1H,3H)-dione] | 351 | 52 | 48 | – | – |
| C[C@H]1CN(Cc2ccn3ncc(-n4ccc(=O)[nH]c4=O)c3c2)CCN1CC1CCC(F)(F)CC1 [Example 363, (S)-1-(5-((4-((4,4-difluorocyclohexyl)methyl)-3-methylpiperazin-1-yl)methyl)pyrazolo[1,5-a]pyridin-3-yl)pyrimidine-2,4(1H,3H)-dione] | 109 | 85 | 15 | – | – |

Compounds with a lower DC50, results first:

| DC50 [nM] | Dmax at 25 µM [1] [%] | remaining activity at 25 µM (HEK-293T, read-out: WIZ Amax) [%] | SMILES | Dmax [1] [%] | remaining activity (HEK-293T, read-out: WIZ Amax) [%] |
| --- | --- | --- | --- | --- | --- |
| 100 | 86 | 14 | CC(C)CN1CCC(C(C)c2ccn3ncc(N4CCC(=O)NC4=O)c3c2)CC1 (stereo not drawn) [Example 267, 1-(5-(1-(1-isobutylpiperidin-4-yl)ethyl)pyrazolo[1,5-a]pyridin-3-yl)dihydropyrimidine-2,4(1H,3H)-dione] | – | – |
| 49 | 87 | 13 | C[C@H]1CN(Cc2ccn3ncc(N4CCC(=O)NC4=O)c3c2)CCN1CC1CC2(C1)CC(F)(F)C2 [Example 326, (S)-1-(5-((4-((6,6-difluorospiro[3.3]heptan-2-yl)methyl)-3-methylpiperazin-1-yl)methyl)pyrazolo[1,5-a]pyridin-3-yl)dihydropyrimidine-2,4(1H,3H)-dione] | – | – |
| 48 | 81 | 19 | C[C@H]1CN(Cc2ccn3ncc(N4CCC(=O)NC4=O)c3c2)CCN1CC1CCC1 [Example 213, (S)-1-(5-((4-(cyclobutylmethyl)-3-methylpiperazin-1-yl)methyl)pyrazolo[1,5-a]pyridin-3-yl)dihydropyrimidine-2,4(1H,3H)-dione] | – | – |
| 41 | 78 | 22 | C[C@@H]1C[C@@H](Cc2ccn3ncc(N4CCC(=O)NC4=O)c3c2)CCN1CC1CCOCC1 [Example 154] | – | – |
| 39 | 66 | 34 | O=C1CCN(c2cnn3ccc(CC4CCN(Cc5cc(F)cc(C(F)(F)F)c5)CC4)cc23)C(=O)N1 [Example 51, 1-(5-((1-(3-fluoro-5-(trifluoromethyl)benzyl)piperidin-4-yl)methyl)pyrazolo[1,5-a]pyridin-3-yl)dihydropyrimidine-2,4(1H,3H)-dione] | – | – |
| 27 | 70 | 30 | Cc1ccccc1CN1CCC(Cc2ccn3ncc(N4CCC(=O)NC4=O)c3c2)CC1 [Example 41, 1-(5-((1-(2-methylbenzyl)piperidin-4-yl)methyl)pyrazolo[1,5-a]pyridin-3-yl)dihydropyrimidine-2,4(1H,3H)-dione] | – | – |
| 23 | 91 | 9 | O=C1CCN(c2cnn3ccc(CC4CCN(CC5CCCC5)CC4)cc23)C(=O)N1 [Example 2, 1-(5-((1-(cyclopentylmethyl)piperidin-4-yl)methyl)pyrazolo[1,5-a]pyridin-3-yl)dihydropyrimidine-2,4(1H,3H)-dione] | – | – |
| 22 | 79 | 21 | CCC(CC)N1CCC(Cc2ccn3ncc(N4CCC(=O)NC4=O)c3c2)CC1 [Example 20, 1-(5-((1-(pentan-3-yl)piperidin-4-yl)methyl)pyrazolo[1,5-a]pyridin-3-yl)dihydropyrimidine-2,4(1H,3H)-dione] | – | – |
| 21 | 83 | 17 | CC(C)C(C)N1CCC(Cc2ccn3ncc(N4CCC(=O)NC4=O)c3c2)CC1 (stereo not drawn) [Example 70, 1-(5-((1-(3-methylbutan-2-yl)piperidin-4-yl)methyl)pyrazolo[1,5-a]pyridin-3-yl)dihydropyrimidine-2,4(1H,3H)-dione] | – | – |
| 15 | 83 | 17 | C[C@H]1C[C@H](Cc2ccn3ncc(N4CCC(=O)NC4=O)c3c2)CCN1S(=O)(=O)N1CCCC1 [Example 291, 1-(5-(((2S,4R)-2-methyl-1-(pyrrolidin-1-ylsulfonyl)piperidin-4-yl)methyl)pyrazolo[1,5-a]pyridin-3-yl)dihydropyrimidine-2,4(1H,3H)-dione] | – | – |
| 3 | 90 | 10 | C[C@H]1C[C@@H](Cc2ccn3ncc(N4CCC(=O)NC4=O)c3c2)CCN1CC1CCC(F)(F)CC1 [Example 74] | – | – |
| 0.3 | 90 | 10 | C[C@H]1C[C@H](Cc2ccn3ncc(N4CCC(=O)NC4=O)c3c2)CCN1Cc1cccnc1 [Example 150] | – | – |
